PubChem BioAssay AID652275 (Broad Institute, 2013)
Results filed as inconclusive are left out. The source made the active and inactive calls. How the calls were made is not given here.

Test system: not listed separately
Experiment: T. cruzi growth inhibition in host cells, dose response, cell-based, plate reader, dry powder, set 2 (AID 652275)
Conditions: T. cruzi proliferation in host cells, plate reader; at 16 µM (top of the series)

| Compound | activity change, negative = inhibition |
| --- | --- |
| CC(C)N1C[C@@H](CN)Oc2c(NC(=O)c3ccncc3)cccc2C1=O | -29% (inactive) |
| CC(C)N1C[C@@H](C)[C@H](CN(C)Cc2ccc(OCCCC(F)(F)C(F)(F)C(F)(F)C(F)(F)C(F)(F)C(F)(F)C(F)(F)C(F)(F)F)cc2)Oc2c(NC(=O)c3ccncc3)cccc2C1=O | 33.7% (inactive) |
| CC(C)N1C[C@@H](C)[C@H](CN(C)Cc2ccc(Oc3ccccc3)cc2)Oc2c(C(=O)O)cccc2C1=O | -33.8% (inactive) |
| C[C@@H]1CN([C@@H](C)CO)C(=O)c2cccc(NC(=O)c3ccncc3)c2O[C@H]1CN(C)C | 18.7% (inactive) |
| C[C@@H](CO)N1CC[C@H](CNC(=O)OC(C)(C)C)Oc2c(cccc2[N+](=O)[O-])C1=O | -13.9% (inactive) |
| CN(C)CC#Cc1cccc(-c2nc(C(=O)O)cc3c2[C@H](CCO)N(S(=O)C(C)(C)C)C3)c1 (stereo partly specified) | -23.9% (inactive) |
| COCCNC(=O)c1cc2c(c(-c3cccc(C#CCN(C)C)c3)n1)[C@H](CCO)N(S(=O)C(C)(C)C)C2 (stereo partly specified) | -35.9% (inactive) |
| CC(C)N1C[C@@H](C)[C@H](CN(C)C(=O)OC(C)(C)C)Oc2c(C#N)cccc2C1=O | -37% (inactive) |
| CN(C)CC#Cc1cccc(-c2nc(C(=O)N3CCN(C)CC3)cc3c2[C@H](CCO)N(S(=O)C(C)(C)C)C3)c1 (stereo partly specified) | 1.54% (inactive) |
| CN(C)CC#Cc1cccc(-c2nc(C(=O)N3CCN(C)CC3)cc3c2[C@@H](CCO)N(S(=O)C(C)(C)C)C3)c1 (stereo partly specified) | -4.18% (inactive) |

Test system: T. cruzi proliferation in host cells, plate reader
Experiment: as above
Conditions: not given

| Compound | AC50 [nM] |
| --- | --- |
| C[C@@H]1CN([C@@H](C)CO)C(=O)c2cccc(NC(=O)c3ccncc3)c2O[C@H]1CN(C)Cc1ccc(Oc2ccccc2)cc1 | 1.11 |
